# According to the supplement of paper PMC10883282:
# Counter-ions that a name gives are not always drawn. ± gives the standard deviation of the averaged measurements.
# System: RD
# Test: relative viability vs DMSO control (72 h) (fraction); higher = more viable cells
# Method in brief: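 Sarcoma cell lines were seeded in 384-well plates at densities set to reach 80–90% confluence. After 24 h, 2.5 µl of serially diluted compound was added (source plates 10 mM to 0.0002 mM), and plates were held 72 h at 37 °C, 5% CO2, with 0.1% DMSO vehicle and a 5 µM positive control. Relative viability came from ATPLite readings as percent growth, averaged over up to triplicate wells. Data were rescaled so full viability equals 1 and none equals 0.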
Structure (SMILES),relative viability (0.00017 µM),relative viability (0.00051 µM),relative viability (0.00152 µM),relative viability (0.00457 µM),relative viability (0.01372 µM),relative viability (0.04115 µM),relative viability (0.1235 µM),relative viability (0.3704 µM),relative viability (1.111 µM),relative viability (3.333 µM),relative viability (10 µM)
CC[C@H](Nc1ncnc2[nH]cnc12)c1nc2cccc(F)c2c(=O)n1-c1ccccc1 [Idelalisib],1.08 ± 0.039,1.11 ± 0.035,1.12 ± 0.06,1.13 ± 0.042,1.13 ± 0.036,1.13 ± 0.039,1.1 ± 0.076,1.12 ± 0.062,1.1 ± 0.066,1.04 ± 0.06,0.927 ± 0.029
COc1cccc2c1C(=O)c1c(O)c3c(c(O)c1C2=O)C[C@@](O)(C(=O)CO)C[C@@H]3O[C@H]1C[C@H](N)[C@H](O)[C@H](C)O1 [Doxorubicin Hydrochloride],1.12 ± 0.074,1.09 ± 0.068,1.12 ± 0.069,1.08 ± 0.072,1.1 ± 0.028,0.892 ± 0.011,0.556 ± 0.019,0.214 ± 0.015,0.0954 ± 0.008,0.0741 ± 0.0052,0.0196 ± 0.00075
Cc1ccc(NC(=O)c2ccc(CN3CCN(C)CC3)cc2)cc1Nc1nc(-c2cccnc2)cs1 [Masitinib],0.967 ± 0.042,0.962 ± 0.054,0.995 ± 0.039,1.03 ± 0.091,1.01 ± 0.096,0.995 ± 0.091,0.995 ± 0.1,0.976 ± 0.1,0.872 ± 0.074,0.587 ± 0.05,0.13 ± 0.02
Cn1cnc2c(F)c(Nc3ccc(Br)cc3F)c(C(=O)NOCCO)cc21 [Binimetinib],1.01 ± 0.049,1 ± 0.04,0.978 ± 0.037,0.89 ± 0.054,0.798 ± 0.05,0.746 ± 0.028,0.677 ± 0.016,0.627 ± 0.036,0.588 ± 0.015,0.534 ± 0.035,0.507 ± 0.012
CC(=O)Nc1cccc(-n2c(=O)n(C3CC3)c(=O)c3c(Nc4ccc(I)cc4F)n(C)c(=O)c(C)c32)c1 [Trametinib],1.08 ± 0.027,1.07 ± 0.064,0.971 ± 0.099,0.838 ± 0.044,0.669 ± 0.07,0.608 ± 0.051,0.584 ± 0.032,0.558 ± 0.038,0.556 ± 0.03,0.523 ± 0.04,0.477 ± 0.022
Cc1cc(Nc2ncnc3ccc(NC4=NC(C)(C)CO4)cc23)ccc1Oc1ccn2ncnc2c1 [Tucatinib],1.08 ± 0.071,1.09 ± 0.076,1.11 ± 0.04,1.08 ± 0.04,1.1 ± 0.026,1.1 ± 0.017,1.07 ± 0.067,1.11 ± 0.073,1.14 ± 0.081,1.18 ± 0.063,1.15 ± 0.061
CCN1CCN(Cc2ccc(Nc3ncc(F)c(-c4cc(F)c5nc(C)n(C(C)C)c5c4)n3)nc2)CC1 [Abemaciclib],1.12 ± 0.06,1.14 ± 0.056,1.09 ± 0.05,1.11 ± 0.054,1.1 ± 0.059,1.07 ± 0.081,1.06 ± 0.078,1.07 ± 0.036,1.1 ± 0.072,1.04 ± 0.049,0.863 ± 0.039
Cc1nc(-c2cn3c(n2)-c2ccc(-c4cnn(C(C)(C)C(N)=O)c4)cc2OCC3)n(C(C)C)n1 [Taselisib],1.11 ± 0.018,1.08 ± 0.041,1.07 ± 0.037,1.06 ± 0.036,1.03 ± 0.028,0.888 ± 0.027,0.687 ± 0.021,0.524 ± 0.017,0.444 ± 0.027,0.426 ± 0.0056,0.36 ± 0.026
C[C@@H]1COCCN1c1cc(-c2ccnn2C)c2ccnc(-c3ccn[nH]3)c2n1,1.08 ± 0.059,1.09 ± 0.027,1.09 ± 0.083,1.12 ± 0.065,1.1 ± 0.037,1.08 ± 0.046,0.93 ± 0.03,0.627 ± 0.025,0.378 ± 0.018,0.23 ± 0.017,0.188 ± 0.011
CO[C@H]1C[C@@H]2CC[C@@H](C)[C@@](O)(O2)C(=O)C(=O)N2CCCC[C@H]2C(=O)O[C@H]([C@H](C)C[C@@H]2CC[C@@H](OP(C)(C)=O)[C@H](OC)C2)CC(=O)[C@H](C)/C=C(\C)[C@@H](O)[C@@H](OC)C(=O)[C@H](C)C[C@H](C)/C=C/C=C/C=C/1C [Ridaforolimus],1.06 ± 0.032,1.05 ± 0.049,0.921 ± 0.01,0.847 ± 0.02,0.753 ± 0.038,0.75 ± 0.036,0.764 ± 0.029,0.71 ± 0.053,0.715 ± 0.071,0.701 ± 0.053,0.683 ± 0.05
CCc1cc2c(cc1N1CCC(N3CCOCC3)CC1)C(C)(C)c1[nH]c3cc(C#N)ccc3c1C2=O [Alectinib],1.12 ± 0.056,1.09 ± 0.022,1.09 ± 0.051,1.1 ± 0.044,1.11 ± 0.049,1.11 ± 0.038,1.13 ± 0.045,1.11 ± 0.044,1.09 ± 0.024,1.054 ± 0.0068,1.05 ± 0.037
COCc1c(-c2cc3cc(C)cc(OC)c3s2)c2c(N)ncnn2c1CN1CCNC(=O)C1 [Rogaratinib],1.03 ± 0.022,1.09 ± 0.017,1.08 ± 0.024,1.11 ± 0.037,1.09 ± 0.033,1.12 ± 0.016,1.1 ± 0.057,1.08 ± 0.03,1.07 ± 0.047,0.923 ± 0.042,0.569 ± 0.015
C[C@@H]1CCN(C(=O)CC#N)C[C@@H]1N(C)c1ncnc2[nH]ccc12 [Tofacitinib],1.05 ± 0.051,1.08 ± 0.064,1.1 ± 0.072,1.12 ± 0.055,1.13 ± 0.068,1.13 ± 0.063,1.13 ± 0.09,1.11 ± 0.029,1.14 ± 0.065,1.14 ± 0.051,1.13 ± 0.056
O=C(Cc1ccc(-c2ccc(OCCN3CCOCC3)cc2)cn1)NCc1ccccc1 [KX2-391],1.03 ± 0.04,1.07 ± 0.055,1.08 ± 0.04,1.07 ± 0.066,1.02 ± 0.022,0.633 ± 0.022,0.346 ± 0.077,0.296 ± 0.015,0.304 ± 0.0065,0.308 ± 0.027,0.286 ± 0.034
C[C@@H](c1ccc2nccn2c1)n1nnc2ncc(-c3cnn(C)c3)nc21 [Volitinib],1.11 ± 0.027,1.11 ± 0.036,1.14 ± 0.03,1.12 ± 0.039,1.11 ± 0.022,1.1 ± 0.02,1.14 ± 0.016,1.14 ± 0.023,1.09 ± 0.017,1.07 ± 0.037,1.02 ± 0.037
C[C@]1(O)C[C@@H](c2nc(-c3ccc4ccc(-c5ccccc5)nc4c3)c3c(N)nccn32)C1 [Linsitinib],1.03 ± 0.04,1.09 ± 0.066,1.1 ± 0.047,1.06 ± 0.05,1.039 ± 0.0018,1.03 ± 0.035,0.875 ± 0.048,0.672 ± 0.0074,0.639 ± 0.028,0.633 ± 0.02,0.568 ± 0.0034
COc1cc2c(Oc3ccc4[nH]c(C)cc4c3F)ncnc2cc1OCCCN1CCCC1 [Cediranib],1.09 ± 0.043,1.1 ± 0.058,1.09 ± 0.015,1.15 ± 0.057,1.09 ± 0.076,1.13 ± 0.046,1.1 ± 0.03,1.04 ± 0.06,1 ± 0.077,1.03 ± 0.13,0.962 ± 0.078
CC(C)(C)c1cc(NC(=O)Nc2ccc(-c3cn4c(n3)sc3cc(OCCN5CCOCC5)ccc34)cc2)no1 [Quizartinib],1.08 ± 0.04,1.07 ± 0.036,1.08 ± 0.035,1.08 ± 0.06,1.07 ± 0.035,1.06 ± 0.025,1.07 ± 0.05,1.05 ± 0.055,1.04 ± 0.025,0.942 ± 0.1,0.922 ± 0.065
COc1cc2/c(=N/c3ccc(Br)cc3F)nc[nH]c2cc1OCC1CCN(C)CC1 [Vandetanib],1.1 ± 0.074,1.1 ± 0.066,1.09 ± 0.057,1.11 ± 0.081,1.1 ± 0.055,1.11 ± 0.088,1.04 ± 0.083,1.01 ± 0.061,0.96 ± 0.037,0.139 ± 0.017,0.0241 ± 0.0083
